Test results reported in PubChem BioAssay (NCI).
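Growth conditions: 96-well plates. Treatment: test compound, 48 hours, 5 concentrations. Analysis: linear interpolation between bracketing concentrations; unreached endpoints set to highest concentration. Here, GI50 denotes the concentration required for 50% inhibition of growth. TGI: total growth inhibition.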

Key:
Assay in all cases: DTP human tumour cell line panel, 48 h
NCI-H460 lung = system: NCI-H460 lung
HT29 colon = system: HT29 colon
TK-10 renal = system: TK-10 renal
DU-145 prostate = system: DU-145 prostate
SF-268 CNS = system: SF-268 CNS
LOX IMVI melanoma = system: LOX IMVI melanoma
MDA-MB-435 = system: MDA-MB-435
RXF 393 renal = system: RXF 393 renal
NCI-H226 lung = system: NCI-H226 lung
OVCAR-5 ovarian = system: OVCAR-5 ovarian

Compound | TGI (NCI-H460 lung) | TGI (HT29 colon) | TGI (TK-10 renal) | TGI (DU-145 prostate) | TGI (SF-268 CNS) | TGI (LOX IMVI melanoma) | TGI (MDA-MB-435) | TGI (RXF 393 renal) | TGI (NCI-H226 lung) | GI50 (NCI-H460 lung) | GI50 (HT29 colon) | GI50 (TK-10 renal) | GI50 (DU-145 prostate) | GI50 (OVCAR-5 ovarian) | TGI (OVCAR-5 ovarian) | GI50 (SF-268 CNS) | GI50 (LOX IMVI melanoma) | GI50 (MDA-MB-435) | GI50 (RXF 393 renal) | GI50 (NCI-H226 lung)
CC(=O)c1c(C)n(C)c2c1nnc1ccccc12 | > 100 µM | > 100 µM | > 100 µM | > 100 µM | > 100 µM | > 100 µM | > 100 µM | > 100 µM | > 100 µM |  |  |  |  |  |  |  |  |  |  | 
CCOC(=O)C1=C(C)NC2SC(=O)/C(=C\c3ccccc3O)N2C1c1ccccc1 (configuration not stated) | 79.4 µM | 41.4 µM | 49 µM | > 100 µM | > 100 µM | 34 µM | 62.5 µM | 46.9 µM | 90.4 µM | 24.3 µM | 19.5 µM | 21.3 µM | 30.5 µM | 63 µM | > 100 µM | 29.7 µM | 18.4 µM | 19.6 µM | 19 µM | 29 µM
COC1CCC(O)C(/C=C/[N+](=O)[O-])C1 (configuration not stated) | 7.73 µM | 11.2 µM | 16.1 µM | 15.2 µM | 15 µM | 3.05 µM | 3.67 µM | 2.91 µM | 5.96 µM |  |  |  |  |  | 21.5 µM |  |  |  |  | 
COc1cnc2c(c1)C(=O)c1c-2n(CCCN2CCC(O)CC2)c(=O)c2cc(F)ccc12 | 0.221 µM |  | 1.59 µM | 1.41 µM | 8.32 µM | 0.295 µM | 5.72 µM | 0.838 µM | 0.307 µM | 0.0444 µM |  | 0.323 µM | 0.174 µM | 0.355 µM | 1.6 µM | 0.272 µM | 0.127 µM | 0.382 µM | 0.217 µM | 0.135 µM
c1ccc(-c2cc(C3CO3)c3ccccc3n2)cc1 (configuration not stated) | 39.1 µM | 35.8 µM | 53.4 µM | 34.7 µM | 47.3 µM | 34.1 µM | 35.5 µM | 28.3 µM | 43.1 µM |  |  |  |  |  | 40.5 µM |  |  |  |  | 
CN1CCN(Cc2ccc(NC(=O)c3cncc(C#Cc4cncc5ncccc45)c3)cc2C(F)(F)F)CC1 | 11.8 µM | 11.9 µM | 15.4 µM | 16.8 µM | 17.6 µM | 2.11 µM | 12.9 µM | 6.46 µM | 11.8 µM | 2.5 µM | 1.04 µM | 4.18 µM | 4.64 µM | 1.8 µM | 14 µM | 3.99 µM | 0.794 µM | 2.03 µM | 1.77 µM | 0.467 µM
Cc1ccc(Nc2n[nH]c(=S)s2)cc1 | > 100 µM | > 100 µM | > 100 µM | > 100 µM | > 100 µM | > 100 µM | > 100 µM | > 100 µM | > 100 µM |  |  |  |  |  | > 100 µM |  |  |  |  | 
Cc1ccc(C)c(NC(=O)NCc2ccc(Cl)cc2)c1 | > 100 µM | > 100 µM | 69.8 µM | > 100 µM | > 100 µM | > 100 µM | > 100 µM | 28.6 µM | 98.8 µM |  |  |  |  |  | > 100 µM |  |  |  |  | 
